Laboratory results: PMC5564600 (Oncotarget, 2017)

Key:
Experiment in all cases: biochemical
Type in all cases: binding
[1] = biological target: T1, panel of 442 kinases (Homo sapiens, UniProt P57058); conditions: kinase HUNK; for remaining activity at 1 µM: read-out: % of control at 1 µM
T1 construct: purchased Ambit Biosciences (scanMAXX KINOMEscan)
T1 sequence (P57058 1-714): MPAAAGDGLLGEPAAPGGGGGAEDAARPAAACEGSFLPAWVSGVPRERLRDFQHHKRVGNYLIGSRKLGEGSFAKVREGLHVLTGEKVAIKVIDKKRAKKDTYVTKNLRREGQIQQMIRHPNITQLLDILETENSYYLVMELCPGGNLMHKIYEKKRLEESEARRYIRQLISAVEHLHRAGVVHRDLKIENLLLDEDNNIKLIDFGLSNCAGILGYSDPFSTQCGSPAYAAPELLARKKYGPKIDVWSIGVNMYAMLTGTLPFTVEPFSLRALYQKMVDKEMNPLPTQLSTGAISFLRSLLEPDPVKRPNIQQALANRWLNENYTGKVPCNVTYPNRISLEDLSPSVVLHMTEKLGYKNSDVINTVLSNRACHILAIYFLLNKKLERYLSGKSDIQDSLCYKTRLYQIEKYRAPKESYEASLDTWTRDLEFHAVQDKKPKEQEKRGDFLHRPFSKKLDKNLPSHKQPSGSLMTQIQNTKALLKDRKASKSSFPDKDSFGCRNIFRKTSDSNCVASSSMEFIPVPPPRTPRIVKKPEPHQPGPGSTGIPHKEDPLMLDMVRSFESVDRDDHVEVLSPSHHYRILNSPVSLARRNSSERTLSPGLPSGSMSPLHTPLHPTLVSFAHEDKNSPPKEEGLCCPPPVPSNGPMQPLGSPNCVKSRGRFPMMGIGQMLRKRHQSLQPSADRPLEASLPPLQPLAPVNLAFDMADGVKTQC

[2] = biological target: T2, panel of 442 kinases (Homo sapiens, UniProt Q13188); conditions: kinase MST2; for remaining activity at 1 µM: read-out: % of control at 1 µM
T2 construct: purchased Ambit Biosciences (scanMAXX KINOMEscan)
T2 sequence (Q13188 1-491): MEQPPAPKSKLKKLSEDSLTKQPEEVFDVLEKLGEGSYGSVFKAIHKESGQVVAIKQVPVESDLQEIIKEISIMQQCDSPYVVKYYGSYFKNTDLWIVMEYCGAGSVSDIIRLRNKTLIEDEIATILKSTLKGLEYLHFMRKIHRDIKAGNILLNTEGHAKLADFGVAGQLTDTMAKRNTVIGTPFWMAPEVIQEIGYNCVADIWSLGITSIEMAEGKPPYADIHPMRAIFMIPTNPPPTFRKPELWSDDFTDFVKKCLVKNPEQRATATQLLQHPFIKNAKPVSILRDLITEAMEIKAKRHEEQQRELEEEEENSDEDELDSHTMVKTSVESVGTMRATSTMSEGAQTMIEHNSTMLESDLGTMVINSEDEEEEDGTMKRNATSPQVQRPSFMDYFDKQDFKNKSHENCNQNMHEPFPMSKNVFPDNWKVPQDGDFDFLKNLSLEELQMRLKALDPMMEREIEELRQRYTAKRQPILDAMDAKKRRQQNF

[3] = biological target: T3, panel of 442 kinases (Homo sapiens, UniProt P07332); conditions: FES; for remaining activity at 1 µM: read-out: % of control at 1 µM
T3 construct: purchased Ambit Biosciences (scanMAXX KINOMEscan)

[4] = biological target: T4, panel of 442 kinases (Homo sapiens, UniProt Q16659); conditions: ERK3; for remaining activity at 1 µM: read-out: % of control at 1 µM
T4 construct: purchased Ambit Biosciences (scanMAXX KINOMEscan)

[5] = biological target: T5, panel of 442 kinases (Homo sapiens, UniProt Q13976); conditions: kinase PRKG1; for remaining activity at 1 µM: read-out: PRKG1 (% of control at 1 µM)
T5 construct: purchased Ambit Biosciences (scanMAXX KINOMEscan)
T5 sequence (Q13976 1-671): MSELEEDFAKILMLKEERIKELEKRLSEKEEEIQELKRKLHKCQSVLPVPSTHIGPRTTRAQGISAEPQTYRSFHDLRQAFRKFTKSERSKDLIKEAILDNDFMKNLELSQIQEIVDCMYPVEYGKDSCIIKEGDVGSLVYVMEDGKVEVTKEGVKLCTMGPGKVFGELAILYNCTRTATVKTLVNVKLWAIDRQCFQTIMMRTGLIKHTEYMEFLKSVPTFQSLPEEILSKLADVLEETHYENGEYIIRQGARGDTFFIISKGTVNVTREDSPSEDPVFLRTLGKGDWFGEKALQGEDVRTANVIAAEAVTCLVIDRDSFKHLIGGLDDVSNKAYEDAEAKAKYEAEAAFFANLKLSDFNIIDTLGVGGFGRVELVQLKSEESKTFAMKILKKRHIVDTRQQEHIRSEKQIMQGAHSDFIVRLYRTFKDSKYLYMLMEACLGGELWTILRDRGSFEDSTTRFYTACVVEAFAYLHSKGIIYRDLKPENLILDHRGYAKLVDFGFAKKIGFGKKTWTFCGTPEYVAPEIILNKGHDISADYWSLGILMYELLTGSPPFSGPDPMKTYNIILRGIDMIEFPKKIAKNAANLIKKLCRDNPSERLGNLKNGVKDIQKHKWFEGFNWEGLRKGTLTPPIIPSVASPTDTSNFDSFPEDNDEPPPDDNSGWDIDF

[6] = biological target: T6, panel of 442 kinases (Homo sapiens, UniProt Q13555); conditions: CAMK2G; for remaining activity at 1 µM: read-out: % of control at 1 µM
T6 construct: purchased Ambit Biosciences (scanMAXX KINOMEscan)

[7] = biological target: T7, panel of 442 kinases (Homo sapiens, UniProt P0C1S8); conditions: kinase WEE2; for remaining activity at 1 µM: read-out: WEE2 (% of control at 1 µM)
T7 construct: purchased Ambit Biosciences (scanMAXX KINOMEscan)

[8] = biological target: T8, panel of 442 kinases (Homo sapiens, UniProt Q9Y243); conditions: AKT3; for remaining activity at 1 µM: read-out: % of control at 1 µM
T8 construct: purchased Ambit Biosciences (scanMAXX KINOMEscan)

[9] = biological target: T9, panel of 442 kinases (Homo sapiens, UniProt Q86Y07); conditions: kinase VRK2; for remaining activity at 1 µM: read-out: VRK2 (% of control at 1 µM)
T9 construct: purchased Ambit Biosciences (scanMAXX KINOMEscan)

[10] = biological target: T10, panel of 442 kinases (Homo sapiens, UniProt P00533, DEL752-759); conditions: EGFR(S752-I759del); for remaining activity at 1 µM: read-out: % of control at 1 µM
T10 construct: purchased Ambit Biosciences (scanMAXX KINOMEscan)

[11] = biological target: T11, panel of 442 kinases (Homo sapiens, UniProt P37173); conditions: kinase TGFBR2; for remaining activity at 1 µM: read-out: TGFBR2 (% of control at 1 µM)
T11 construct: purchased Ambit Biosciences (scanMAXX KINOMEscan)

[12] = 10 µM, read-out: % of control at 10 µM

T4 sequence (Q16659 whole entry): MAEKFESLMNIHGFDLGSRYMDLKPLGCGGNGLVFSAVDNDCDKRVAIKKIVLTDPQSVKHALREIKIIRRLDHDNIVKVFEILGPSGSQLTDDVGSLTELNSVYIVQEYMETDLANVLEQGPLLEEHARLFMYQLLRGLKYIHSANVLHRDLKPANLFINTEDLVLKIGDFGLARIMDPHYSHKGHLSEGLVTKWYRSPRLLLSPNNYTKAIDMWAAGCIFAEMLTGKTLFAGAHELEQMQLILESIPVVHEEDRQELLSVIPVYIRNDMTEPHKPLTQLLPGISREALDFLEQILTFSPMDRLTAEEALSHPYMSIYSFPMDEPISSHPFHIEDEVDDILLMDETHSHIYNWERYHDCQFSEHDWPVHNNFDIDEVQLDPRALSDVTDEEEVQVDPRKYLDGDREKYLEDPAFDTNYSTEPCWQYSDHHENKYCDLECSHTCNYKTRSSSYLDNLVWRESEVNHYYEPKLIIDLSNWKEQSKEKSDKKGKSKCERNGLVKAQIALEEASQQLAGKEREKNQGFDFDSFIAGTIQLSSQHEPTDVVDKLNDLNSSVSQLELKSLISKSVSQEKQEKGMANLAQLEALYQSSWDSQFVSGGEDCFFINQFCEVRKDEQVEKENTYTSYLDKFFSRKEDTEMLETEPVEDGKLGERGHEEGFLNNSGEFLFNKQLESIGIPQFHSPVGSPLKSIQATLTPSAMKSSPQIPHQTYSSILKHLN
T10 sequence (P00533 with tags, fused parts or gaps DEL752-759): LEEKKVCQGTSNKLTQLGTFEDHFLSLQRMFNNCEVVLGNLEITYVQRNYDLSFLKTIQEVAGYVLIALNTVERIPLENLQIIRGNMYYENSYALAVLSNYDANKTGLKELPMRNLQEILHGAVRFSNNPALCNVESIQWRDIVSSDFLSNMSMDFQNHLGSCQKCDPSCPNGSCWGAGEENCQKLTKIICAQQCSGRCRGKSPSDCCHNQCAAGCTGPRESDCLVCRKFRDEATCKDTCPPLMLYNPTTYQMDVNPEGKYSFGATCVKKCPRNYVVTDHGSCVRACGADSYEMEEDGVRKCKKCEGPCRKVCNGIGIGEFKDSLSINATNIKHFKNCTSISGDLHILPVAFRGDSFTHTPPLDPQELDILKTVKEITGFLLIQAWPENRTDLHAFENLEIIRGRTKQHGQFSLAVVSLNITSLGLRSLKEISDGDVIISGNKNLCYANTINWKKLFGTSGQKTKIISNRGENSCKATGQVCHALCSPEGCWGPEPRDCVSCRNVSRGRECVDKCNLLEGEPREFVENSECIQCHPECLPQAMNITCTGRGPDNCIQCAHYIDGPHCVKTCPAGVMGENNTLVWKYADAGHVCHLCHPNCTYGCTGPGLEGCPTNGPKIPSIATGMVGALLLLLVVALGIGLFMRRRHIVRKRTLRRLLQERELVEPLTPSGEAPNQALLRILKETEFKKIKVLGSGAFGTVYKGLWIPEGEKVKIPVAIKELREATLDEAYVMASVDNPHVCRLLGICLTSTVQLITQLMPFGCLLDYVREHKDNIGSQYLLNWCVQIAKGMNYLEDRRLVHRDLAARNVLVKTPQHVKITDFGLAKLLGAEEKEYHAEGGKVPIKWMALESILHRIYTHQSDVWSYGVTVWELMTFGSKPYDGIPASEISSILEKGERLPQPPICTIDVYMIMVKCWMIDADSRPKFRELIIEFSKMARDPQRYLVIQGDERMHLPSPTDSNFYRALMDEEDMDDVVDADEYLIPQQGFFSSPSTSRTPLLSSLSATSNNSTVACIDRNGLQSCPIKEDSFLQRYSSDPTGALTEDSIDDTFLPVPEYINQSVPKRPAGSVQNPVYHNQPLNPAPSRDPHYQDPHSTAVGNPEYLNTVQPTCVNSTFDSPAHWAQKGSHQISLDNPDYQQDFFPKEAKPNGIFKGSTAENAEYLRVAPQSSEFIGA
T8 sequence (Q9Y243 whole entry): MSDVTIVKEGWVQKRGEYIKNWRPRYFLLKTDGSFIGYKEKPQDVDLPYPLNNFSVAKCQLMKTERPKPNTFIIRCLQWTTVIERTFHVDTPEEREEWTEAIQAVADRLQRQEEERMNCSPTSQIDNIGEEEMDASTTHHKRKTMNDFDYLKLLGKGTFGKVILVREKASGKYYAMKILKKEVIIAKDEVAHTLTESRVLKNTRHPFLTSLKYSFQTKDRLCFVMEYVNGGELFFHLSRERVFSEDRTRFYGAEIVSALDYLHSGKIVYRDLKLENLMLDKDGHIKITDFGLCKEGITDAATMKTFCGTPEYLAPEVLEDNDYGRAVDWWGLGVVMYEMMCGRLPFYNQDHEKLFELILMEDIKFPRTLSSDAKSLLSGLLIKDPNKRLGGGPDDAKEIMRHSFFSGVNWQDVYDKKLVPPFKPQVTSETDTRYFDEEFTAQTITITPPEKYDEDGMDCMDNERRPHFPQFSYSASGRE
T6 sequence (Q13555 whole entry): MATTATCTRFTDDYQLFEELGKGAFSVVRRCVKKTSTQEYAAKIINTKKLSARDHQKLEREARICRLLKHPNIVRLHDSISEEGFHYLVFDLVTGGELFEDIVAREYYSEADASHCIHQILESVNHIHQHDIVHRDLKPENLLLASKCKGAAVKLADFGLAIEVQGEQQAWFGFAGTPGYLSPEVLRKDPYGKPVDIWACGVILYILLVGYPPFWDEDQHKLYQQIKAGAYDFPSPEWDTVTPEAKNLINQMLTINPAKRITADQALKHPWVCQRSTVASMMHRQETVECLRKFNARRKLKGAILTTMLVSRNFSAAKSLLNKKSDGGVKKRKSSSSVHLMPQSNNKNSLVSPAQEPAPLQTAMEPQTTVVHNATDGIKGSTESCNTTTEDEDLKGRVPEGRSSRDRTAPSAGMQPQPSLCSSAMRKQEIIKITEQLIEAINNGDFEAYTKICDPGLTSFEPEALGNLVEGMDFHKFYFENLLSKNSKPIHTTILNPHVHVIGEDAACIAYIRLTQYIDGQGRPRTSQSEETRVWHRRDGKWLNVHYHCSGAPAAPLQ
T3 sequence (P07332 whole entry): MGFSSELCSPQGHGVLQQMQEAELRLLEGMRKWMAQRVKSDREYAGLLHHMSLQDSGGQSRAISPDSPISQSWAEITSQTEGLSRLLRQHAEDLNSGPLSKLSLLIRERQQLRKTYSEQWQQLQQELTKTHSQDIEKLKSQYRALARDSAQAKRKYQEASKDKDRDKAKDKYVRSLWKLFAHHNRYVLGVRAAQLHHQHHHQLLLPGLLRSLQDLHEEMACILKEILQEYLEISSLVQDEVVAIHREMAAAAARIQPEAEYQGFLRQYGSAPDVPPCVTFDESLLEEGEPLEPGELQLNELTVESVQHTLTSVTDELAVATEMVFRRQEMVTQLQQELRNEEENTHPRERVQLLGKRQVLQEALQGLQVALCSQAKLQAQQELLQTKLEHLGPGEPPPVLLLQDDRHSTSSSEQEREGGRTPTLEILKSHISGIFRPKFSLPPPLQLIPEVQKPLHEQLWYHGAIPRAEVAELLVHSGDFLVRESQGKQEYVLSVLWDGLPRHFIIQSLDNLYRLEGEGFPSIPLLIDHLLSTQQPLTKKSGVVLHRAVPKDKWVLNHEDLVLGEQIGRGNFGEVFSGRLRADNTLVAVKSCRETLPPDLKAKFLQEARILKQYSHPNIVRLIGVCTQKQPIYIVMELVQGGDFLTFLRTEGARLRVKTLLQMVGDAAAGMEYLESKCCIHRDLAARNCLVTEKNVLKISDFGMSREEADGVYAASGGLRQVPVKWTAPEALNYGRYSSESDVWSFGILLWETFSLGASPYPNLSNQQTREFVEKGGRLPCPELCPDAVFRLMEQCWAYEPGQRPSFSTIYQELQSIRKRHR
T7 sequence (P0C1S8 whole entry): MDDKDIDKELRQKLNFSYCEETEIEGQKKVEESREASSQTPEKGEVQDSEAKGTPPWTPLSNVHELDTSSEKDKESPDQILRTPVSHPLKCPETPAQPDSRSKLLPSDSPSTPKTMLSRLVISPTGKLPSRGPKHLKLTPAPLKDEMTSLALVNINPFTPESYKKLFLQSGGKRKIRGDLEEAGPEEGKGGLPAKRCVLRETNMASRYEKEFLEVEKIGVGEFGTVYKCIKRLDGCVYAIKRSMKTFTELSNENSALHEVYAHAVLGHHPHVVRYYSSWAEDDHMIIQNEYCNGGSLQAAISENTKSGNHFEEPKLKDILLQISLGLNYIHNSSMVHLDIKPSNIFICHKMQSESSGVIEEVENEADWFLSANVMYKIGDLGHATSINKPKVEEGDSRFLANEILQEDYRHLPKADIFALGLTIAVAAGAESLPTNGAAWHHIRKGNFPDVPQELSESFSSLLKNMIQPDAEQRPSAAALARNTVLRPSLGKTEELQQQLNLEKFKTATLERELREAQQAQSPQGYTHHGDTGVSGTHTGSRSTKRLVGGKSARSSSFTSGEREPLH
T11 sequence (P37173 23-567): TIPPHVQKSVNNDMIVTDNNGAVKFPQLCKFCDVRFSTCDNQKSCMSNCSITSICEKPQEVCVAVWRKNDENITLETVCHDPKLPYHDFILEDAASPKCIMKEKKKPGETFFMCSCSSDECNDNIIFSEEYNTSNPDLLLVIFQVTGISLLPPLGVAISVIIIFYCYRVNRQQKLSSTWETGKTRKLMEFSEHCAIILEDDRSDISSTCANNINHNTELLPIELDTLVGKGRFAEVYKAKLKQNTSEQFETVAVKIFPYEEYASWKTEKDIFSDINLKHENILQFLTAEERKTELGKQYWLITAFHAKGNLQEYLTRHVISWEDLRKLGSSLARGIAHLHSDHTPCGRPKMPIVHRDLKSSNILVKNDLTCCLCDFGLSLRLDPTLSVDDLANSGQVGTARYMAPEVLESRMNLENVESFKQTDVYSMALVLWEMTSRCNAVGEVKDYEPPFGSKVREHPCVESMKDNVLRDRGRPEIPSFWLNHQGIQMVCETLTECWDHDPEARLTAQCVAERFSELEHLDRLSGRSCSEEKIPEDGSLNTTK

SMILES	remaining activity at 1 µM [1] [%]	remaining activity at 1 µM [2] [%]	remaining activity at 1 µM [3] [%]	remaining activity at 1 µM [4] [%]	remaining activity at 1 µM [5] [%]	remaining activity at 1 µM [6] [%]	remaining activity at 1 µM [7] [%]	remaining activity at 1 µM [8] [%]	remaining activity at 1 µM [9] [%]	remaining activity at 1 µM [10] [%]	remaining activity at 1 µM [11] [%]	also measured
Nc1cc(C(F)(F)F)c(-c2cc(N3CCOCC3)nc(N3CCOCC3)n2)cn1 [Buparlisib]	100	89	100	96	77	100	100	84	83	83	98	remaining activity at 10 µM [1, 12]: 100%; remaining activity at 10 µM [2, 12]: 84%; remaining activity at 10 µM [3, 12]: 100%; remaining activity at 10 µM [4, 12]: 99%; remaining activity at 10 µM ([5]; 10 µM, read-out: PRKG1 (% of control at 10 µM)): 100%; remaining activity at 10 µM [6, 12]: 100%; remaining activity at 10 µM ([7]; 10 µM, read-out: WEE2 (% of control at 10 µM)): 100%; remaining activity at 10 µM [8, 12]: 92%; remaining activity at 10 µM ([9]; 10 µM, read-out: VRK2 (% of control at 10 µM)): 100%; remaining activity at 10 µM [10, 12]: 87%; remaining activity at 10 µM ([11]; 10 µM, read-out: TGFBR2 (% of control at 10 µM)): 100%
Cn1c(=O)n(-c2ccc(C(C)(C)C#N)cc2)c2c3cc(-c4cnc5ccccc5c4)ccc3ncc21 [Dactolisib, 2-methyl-2-[4-(3-methyl-2-oxo-8-quinolin-3-yl-2,3-dihydroimidazo[4,5-c]quinolin-1-yl)-phenyl] propionitrile]	93	43	92	97	95	88	100	84	83	100	100	
COc1ncc(-c2ccc3nccc(-c4ccnnc4)c3c2)cc1NS(=O)(=O)c1ccc(F)cc1F [Omipalisib]	74	53	100	85	100	100	84	100	100	100	95	
FC(F)c1nc2ccccc2n1-c1nc(N2CCOCC2)nc(N2CCOCC2)n1 [ZSTK474, 2-(difluoromethyl)-1-[4,6-di(4-morpholinyl)-1,3,5-triazin-2-yl]-1H-benzimidazole]	100	76	100	100	100	100	96	66	100	100	100	
